Tests used:
[1] = target: T1, MKP3^KBD and ERK2 complex (Homo sapiens, UniProt Q16828); assay: NMR competitive binding titration of ERK2 and BCI; conditions: excess BCI added to MKP3^KBD and ERK2 complex
T1 construct: spectra of ^15N-MKP3^1–154 in the presence of ERK2; made in house; host or cells: Escherichia coli BL21(DE3)
T1 sequence (Q16828 1-154): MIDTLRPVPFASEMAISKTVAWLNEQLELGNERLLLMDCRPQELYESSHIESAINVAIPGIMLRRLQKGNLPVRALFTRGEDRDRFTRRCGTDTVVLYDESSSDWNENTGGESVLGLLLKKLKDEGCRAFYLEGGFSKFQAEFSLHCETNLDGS
Method: NMR data were collected at 298 K on a Bruker AVANCE NEO 800 MHz spectrometer (Bruker BioSpin) equipped with a ^1H&^19F/^13C/^15N TCI cryogenic probe. Backbone resonances of MKP3^1–154 were assigned using 2D/3D experiments, including 2D ^1H–^15N HSQC and 3D ^1H/^13C/^15N CBCA(CO)NH, HNCACB, HNCO, and HN(CA)CO, performed with uniformly ^13C/^15N labeled protein at a final concentration of 0.39 mM in buffer containing 20 mM imidazole (pH 6.0), 100 mM NaCl, 5 mM DTT, 0.5 mM EDTA, and 5% (v/v) D2O. The buffer used for backbone resonance assignment was similar to that used for the previously reported NMR structure ([15]). […] The relaxation rates R1 (1/T1) and R2 (1/T2) for each residue were determined by fitting the peak intensities from spectra acquired at the various delay times to a single-exponential decay function: I/I0 = exp(-R1,2·t), where I0 is the intensity at t = 0, and I is the intensity at a delay time t. […] Repeated experiments were performed to estimate uncertainties, and the propagated error for each NOE value was calculated using the following equation: σNOE = NOE × ((σsat/Isat)^2+(σunsat/Iunsat)^2)^1/2, where σsat and σunsat are the SDs of the saturated and unsaturated spectra, respectively, and Isat and Iunsat are the corresponding signal intensities. NMR data were processed using TopSpin 4.1.1 (Bruker BioSpin) or NMRPipe ([54]) and analyzed with POKY ([55]).

[2] = target: T2, MKP3 E81G (Homo sapiens, UniProt Q16828, E81G); assay: MST affinity of MKP3 mutant; format: binding; conditions: full-length mutant
T2 construct: MKP3(1–381) (MKP3^FL); made in house; host or cells: Escherichia coli BL21(DE3)
T2 sequence (Q16828 1-381 E81G): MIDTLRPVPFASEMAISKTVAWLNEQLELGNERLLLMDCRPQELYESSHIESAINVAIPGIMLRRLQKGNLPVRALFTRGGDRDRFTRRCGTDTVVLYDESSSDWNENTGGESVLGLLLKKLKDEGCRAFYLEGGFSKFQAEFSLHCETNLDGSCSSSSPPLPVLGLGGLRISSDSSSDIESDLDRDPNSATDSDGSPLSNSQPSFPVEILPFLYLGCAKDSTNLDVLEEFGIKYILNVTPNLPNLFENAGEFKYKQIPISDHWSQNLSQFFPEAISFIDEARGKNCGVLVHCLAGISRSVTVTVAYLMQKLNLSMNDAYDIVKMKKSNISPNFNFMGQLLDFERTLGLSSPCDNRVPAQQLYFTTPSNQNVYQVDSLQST
Method: MST measurements were performed using fluorescently labeled proteins and the inhibitor BCI (CAS: 1245792-51-1; TargetMol) on a Monolith instrument (NanoTemper Technologies). The RED–Tris–NTA second-generation dye was dissolved in MST buffer (20 mM Hepes, pH 7.4, 200 mM NaCl, and 0.05% Tween-20) to prepare a 5 μM stock solution. Fluorescent labeling of MKP proteins followed the standard protocol of the MO-L018 RED–Tris–NTA protein labeling kit, leveraging the His-tag–dye interaction.
The BCI compound was prepared as a 600 to 750 μM stock solution in MST buffer with 10% DMSO to enhance solubility, followed by a 16-point serial dilution. The diluted BCI solutions were thoroughly mixed with labeled MKP proteins (50 nM) at a 1:1 volume ratio, yielding a final volume of 10 μl. The reaction mixtures were incubated in the dark for 10 min at room temperature before being loaded into standard glass capillaries. Measurements were carried out on the Monolith instrument (100% LED, 40% IR laser power) with a 20 s laser on time. The normalized fluorescence values from triplicate measurements were averaged at each concentration and fitted to a 1:1 binding model using the KD model in MO.Affinity software (v3.0.5, NanoTemper Technologies) to determine the binding affinities between MKP proteins and the BCI inhibitor. The final reported Kd value represents the mean ± SD of Kd values obtained from three independent experiments, each fitted separately.
Figure S3. Affinity measurements of MKP3 mutants with BCI by MST. The binding affinities of full-length MKP3 mutants (E81G, R83G, R85G, R87G, and R89A) to BCI were determined by MST and are presented as mean ± SD (n = 3). Wild-type MKP3 (MKP3^WT) was included as a reference.

- affinity for BCI compared with MKP3^WT [2]: significantly reduced affinity
Structure (SMILES): O=C1/C(=C/c2ccccc2)C(NC2CCCCC2)c2ccccc21 (centres unmarked) [BCI, (E)-2-benzylidene-3-(cyclohexylamino)-2,3-dihydro-1H-inden-1-one]
- effect on ERK2-bound MKP3^KBD spectrum [1]: reversion of specific MKP3^KBD peaks to their ERK2-unbound state
